{"source": "paper PMC6628624", "about": "(Toxins, 2019)", "key": {"[1]": {"details": "pig, in vivo; cited from earlier work"}, "[2]": {"details": "monkey, in vivo; cited from earlier work"}, "[3]": {"details": "rat, in vivo; cited from earlier work"}, "Caco-2 cells [4]": {"test_system": "Caco-2 cells", "details": "cited from earlier work"}, "Caco-2 cells [5]": {"test_system": "Caco-2 cells", "details": "human"}, "rats": {"test_system": "rats", "details": "rat, in vivo; cited from earlier work"}, "[6]": {"details": "in vivo"}, "in vitro": {"test": "in vitro", "details": "human, Caco-2, Papp (apparent permeability coefficient)"}, "mice": {"test_system": "mice", "details": "mouse, in vivo, cited from earlier work"}, "in vivo": {"test": "in vivo", "details": "male, Landrace × Large White × Duroc, pig, 0.1 mg/kg"}, "[7]": {"details": "rat, in vivo, sc; cited from earlier work"}, "[8]": {"details": "male, Landrace × Large White × Duroc, swine, 0.1 mg/kg"}, "[9]": {"details": "male, Landrace × Large White × Duroc, swine, po, 0.1 mg/kg"}}, "note": "Where two headings read alike, the source gives them in different places.", "data": [{"compound": "C[C@@H]1Cc2c(Cl)cc(C(=O)N[C@@H](Cc3ccccc3)C(=O)O)c(O)c2C(=O)O1", "note": "[ochratoxin A]", "values": [{"measurement": "bioavailability", "setting": "[1]", "value": 65.7, "unit": "%"}, {"measurement": "elimination half-life", "setting": "[1]", "value": 84.5, "unit": "h"}, {"measurement": "elimination half-life", "setting": "[2]", "value": 840, "unit": "h"}]}, {"compound": "aflatoxin B1", "values": [{"measurement": "elimination half-life", "setting": "[3]", "value": 91.8, "unit": "h"}]}, {"compound": "aflatoxin M1", "values": [{"measurement": "Papp", "setting": "Caco-2 cells [4]", "value": "105.10 ± 7.98 ×10^−6 cm/s"}]}, {"compound": "COc1cc(=O)oc(/C=C/C=C/C=C/C(C)=C/[C@]2(C)O[C@H](C)[C@](C)(O)[C@H]2O)c1C", "note": "[CTVD, Citreoviridin]", "values": [{"measurement": "Papp (apparent permeability coefficient)", "setting": "Caco-2 cells [5]", "value": "42.6 ± 17.7 ×10^−6 cm/s"}, {"measurement": "outcome of chronic low-dose administration", "setting": "rats", "value": "rats died"}, {"measurement": "adverse clinical signs", "setting": "[6]", "value": "None"}, {"measurement": "plasma CTVD concentration until 3 h after PO", "setting": "[6]; po, 0.1 mg/kg", "value": "almost no increase"}, {"measurement": "time to eliminate CTVD in plasma", "setting": "[6]; male, Landrace × Large White × Duroc, swine", "value": "more than 40 h"}, {"measurement": "F (bioavailability calculated using mean AUC∞ after PO and IV)", "setting": "[6]; [8]", "value": 116.4, "unit": "%"}, {"measurement": "Ft (bioavailability calculated using mean AUCt after PO and IV)", "setting": "[6]; [8]", "value": 79.3, "unit": "%"}, {"measurement": "Vd (apparent volume of distribution)", "setting": "[6]; male, Landrace × Large White × Duroc, swine, iv, 0.1 mg/kg", "value": "1.5 ± 0.2", "unit": "L"}, {"measurement": "extrapolation estimate of AUC (from 48 h to infinity) relative to AUCt", "setting": "[6]; male, Landrace × Large White × Duroc, swine, po", "value": "68 % of AUCt"}, {"measurement": "Kel (rate constant)", "setting": "[6]; [9]", "value": "0.4 ± 0.2 ×10^−1 h^−1"}, {"measurement": "Vd/F (apparent volume of distribution)", "setting": "[6]; [9]", "value": "1.7 ± 0.3", "unit": "L"}, {"measurement": "Papp", "setting": "in vitro", "value": "52.2 ± 28.3", "unit": "×10⁻⁶ cm/s"}, {"measurement": "LD50 (lethal dose 50%)", "setting": "mice; ip", "value": 7.5, "unit": "mg/kg"}, {"measurement": "LD50 (lethal dose 50%)", "setting": "mice; sc", "value": "3.6 to 11.8", "unit": "mg/kg"}, {"measurement": "AUC(0-inf)", "setting": "in vivo; iv", "value": "1510 ± 332", "unit": "ng·h/mL"}, {"measurement": "AUC(0-t)", "setting": "in vivo; iv", "value": "1320 ± 224", "unit": "ng·h/mL"}, {"measurement": "MRT", "setting": "in vivo; iv", "value": "14.6 ± 1.2", "unit": "h"}, {"measurement": "half-life", "setting": "in vivo; iv", "value": "16.2 ± 4.3", "unit": "h"}, {"measurement": "AUC(0-inf)", "setting": "in vivo; po", "value": "1760 ± 814", "unit": "ng·h/mL"}, {"measurement": "AUC(0-t)", "setting": "in vivo; po", "value": "1050 ± 181", "unit": "ng·h/mL"}, {"measurement": "Cmax", "setting": "in vivo; po", "value": "38.2 ± 6.7", "unit": "ng/mL"}, {"measurement": "MRT", "setting": "in vivo; po", "value": "19.6 ± 4", "unit": "h"}, {"measurement": "Tmax", "setting": "in vivo; po", "value": "15 ± 6", "unit": "h"}, {"measurement": "half-life", "setting": "in vivo; po", "value": "21.4 ± 12.7", "unit": "h"}, {"measurement": "CTVD still detected in the liver after 52 h", "setting": "[7]", "value": "< 1 % of the total administered dose"}, {"measurement": "persistence of CTVD in organs at 52 h", "setting": "[7]", "value": "remained in the liver, kidney, and heart"}, {"measurement": "time at which the concentration of CTVD was highest in the liver", "setting": "[7]", "value": 8, "unit": "h"}]}, {"compound": "C[C@H]1CCCC(=O)CCC/C=C/c2cc(O)cc(O)c2C(=O)O1", "note": "[zearalenone]", "values": [{"measurement": "bioavailability", "setting": "[1]", "value": "80–85%"}, {"measurement": "Papp", "setting": "Caco-2 cells [4]; Caco-2", "value": "10.4 ± 4.7 × 10^−6 cm/s"}]}, {"compound": "CC1=C[C@H]2O[C@@H]3[C@H](O)C[C@](C)([C@@]2(CO)[C@H](O)C1=O)[C@]31CO1", "note": "[deoxynivalenol]", "values": [{"measurement": "bioavailability", "setting": "[1]", "value": "48–109.8%"}, {"measurement": "elimination half-life", "setting": "[1]", "value": "7.2 to 15.2", "unit": "h"}, {"measurement": "Papp", "setting": "Caco-2 cells [4]; Caco-2", "value": "0.19 ± 0.02 × 10^−6 cm/min"}]}, {"compound": "CCCC[C@@H](C)[C@@H](OC(=O)C[C@@H](CC(=O)O)C(=O)O)[C@H](C[C@@H](C)C[C@H](O)CCCC[C@@H](O)C[C@H](O)[C@H](C)N)OC(=O)C[C@@H](CC(=O)O)C(=O)O", "note": "[fumonisin B1]", "values": [{"measurement": "elimination half-life", "setting": "[1]", "value": 3.03, "unit": "h"}]}]}
